Reference: patent publication US6534542B2, “(2-hydroxy)ethyl-thioureas useful as modulators of α2B adrenergic receptors” (Allergen Sales, Inc., priority 2001, dated 2003)

Legend:
alpha2C receptor = biological target: T1, alpha2C receptor (Homo sapiens, UniProt P18825); test: Receptor Selection and Amplification Technology (RSAT) assay, alpha2C; format: cell-based; conditions: NIH-3T3 cells; for EC50: NA = not active at concentrations less than 10 micromolar, read-out: RSAT EC50 (nM) Alpha 2C; for fraction of activity of the standard (brimonidine) attained, Alpha 2C (number in parenthesis): ratio of maximal effect to that of standard full agonist brimonidine
T1 construct: expressed in transfected cells; host or cells: NIH-3T3
T1 sequence (P18825 1-462): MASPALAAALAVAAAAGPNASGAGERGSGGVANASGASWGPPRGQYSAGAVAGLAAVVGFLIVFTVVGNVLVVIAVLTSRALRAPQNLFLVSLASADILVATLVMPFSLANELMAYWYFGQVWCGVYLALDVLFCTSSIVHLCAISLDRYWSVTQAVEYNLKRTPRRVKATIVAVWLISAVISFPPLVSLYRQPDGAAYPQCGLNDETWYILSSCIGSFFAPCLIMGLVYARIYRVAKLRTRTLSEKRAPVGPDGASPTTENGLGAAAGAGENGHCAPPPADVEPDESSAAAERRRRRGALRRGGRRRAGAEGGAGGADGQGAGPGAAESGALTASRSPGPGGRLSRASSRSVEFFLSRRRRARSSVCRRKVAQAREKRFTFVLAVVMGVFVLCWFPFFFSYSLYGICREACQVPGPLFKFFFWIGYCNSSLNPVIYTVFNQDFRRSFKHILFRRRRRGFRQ
Description: (§1) The compounds of the invention are agonists of α2 adrenergic receptors, particularly they tend to be specific or selective agonists of α2B and/or to a lesser extent α2C adrenergic receptors, in preference over α2A adrenergic receptors. […] Al., 1995, Pharmacol. Toxicol. 76, pp. 308-311 (incorporated herein by reference) and is also described below. Another reference pertinent to this assay is Conklin et al. (1993) Nature 363:274-6, also incorporated herein by reference.
(§2) The RSAT assay measures a receptor-mediated loss of contact inhibition that results in selective proliferation of receptor-containing cells in a mixed population of confluent cells. The increase in cell number is assessed with an appropriate transfected marker gene such as β-galactosidase, the activity of which can be easily measured in a 96-well format. Receptors that activate the G protein, Gq, elicit this response. Alpha2 receptors, which normally couple to Gi, activate the RSAT response when coexpressed with a hybrid Gq protein that has a Gi receptor recognition domain, called Gq/i5^2.
(§3) NIH-3T3 cells are plated at a density of 2×10^6 cells in 15 cm dishes and maintained in Dulbecco's modified Eagle's medium supplemented with 10% calf serum. One day later, cells are cotransfected by calcium phosphate precipitation with mammalian expression plasmids encoding p-SV-β-galactosidase (5-10 μg), receptor (1-2 μg) and G protein (1-2 μg). 40 μg salmon sperm DNA may also be included in the transfection mixture. Fresh media is added on the following day and 1-2 days later, cells are harvested and frozen in 50 assay aliquots. Cells are thawed and 100 μl added to 100 μl aliquots of various concentrations of drugs in triplicate in 96-well dishes. Incubations continue 72-96 hr at 37°. After washing with phosphate-buffered saline, β-galactosidase enzyme activity is determined by adding 200 μl of the chromogenic substrate (consisting of 3.5 mM o-nitrophenyl-β-D-galactopyranoside and 0.5% nonidet P-40 in phosphate buffered saline), incubating overnight at 30 and measuring optical density at 420 nm. The absorbance is a measure of enzyme activity, which depends on cell number and reflects a receptor-mediated cell proliferation. The EC50 and maximal effect of each drug at each alpha2 receptor is determined. The efficacy or intrinsic activity is calculated as a ratio of the maximal effect of the drug to the maximal effect of a standard full agonist for each receptor subtype. Brimonidine, also called […], the chemical structure of which is shown below, is used as the standard agonist for the alpha2A, alpha2B and alpha2C receptors. [drawing 6]
(§4) The results of the RSAT assay with several exemplary compounds of the invention are disclosed in Table 3. […] NA stands for “not active” at concentrations less than 10 micromolar. As is known EC50 is the concentration at which half of a given compound's maximal activity is observed. It can be seen from the table that the compounds of the invention are specific or selective agonists of α2B and/or α2C adrenergic receptors, with no agonist like activity or only with insignificant agonist-like activity on α2A receptors.

alpha2B receptor = biological target: T2, alpha2B receptor (Homo sapiens, UniProt P18089); test: Receptor Selection and Amplification Technology (RSAT) assay, alpha2B; format: cell-based; conditions: NIH-3T3 cells; for EC50: NA = not active at concentrations less than 10 micromolar, read-out: RSAT EC50 (nM) Alpha 2B; for fraction of activity of the standard (brimonidine) attained, Alpha 2B (number in parenthesis): ratio of maximal effect to that of standard full agonist brimonidine
T2 construct: expressed in transfected cells; host or cells: NIH-3T3
T2 sequence (P18089 1-450): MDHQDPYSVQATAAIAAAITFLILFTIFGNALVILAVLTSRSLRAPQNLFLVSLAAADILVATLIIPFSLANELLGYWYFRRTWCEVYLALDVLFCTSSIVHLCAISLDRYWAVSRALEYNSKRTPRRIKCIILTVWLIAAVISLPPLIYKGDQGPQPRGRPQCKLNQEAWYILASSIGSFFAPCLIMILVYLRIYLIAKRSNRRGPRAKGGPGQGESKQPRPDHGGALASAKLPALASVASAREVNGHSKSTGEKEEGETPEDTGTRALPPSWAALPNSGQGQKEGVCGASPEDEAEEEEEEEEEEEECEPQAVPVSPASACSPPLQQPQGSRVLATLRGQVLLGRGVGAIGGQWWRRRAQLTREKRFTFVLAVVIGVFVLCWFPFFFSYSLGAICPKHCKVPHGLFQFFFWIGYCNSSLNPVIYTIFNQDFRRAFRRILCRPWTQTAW
Description: as §1, §2, §3, §4

alpha2A receptor = biological target: T3, alpha2A receptor (Homo sapiens, UniProt P08913); test: Receptor Selection and Amplification Technology (RSAT) assay, alpha2A; format: cell-based; conditions: NIH-3T3 cells; for EC50: NA = not active at concentrations less than 10 micromolar, read-out: RSAT EC50 (nM) Alpha 2A; for fraction of activity of the standard (brimonidine) attained, Alpha 2A (number in parenthesis): ratio of maximal effect to that of standard full agonist brimonidine
T3 construct: expressed in transfected cells; host or cells: NIH-3T3
T3 sequence (P08913 1-465): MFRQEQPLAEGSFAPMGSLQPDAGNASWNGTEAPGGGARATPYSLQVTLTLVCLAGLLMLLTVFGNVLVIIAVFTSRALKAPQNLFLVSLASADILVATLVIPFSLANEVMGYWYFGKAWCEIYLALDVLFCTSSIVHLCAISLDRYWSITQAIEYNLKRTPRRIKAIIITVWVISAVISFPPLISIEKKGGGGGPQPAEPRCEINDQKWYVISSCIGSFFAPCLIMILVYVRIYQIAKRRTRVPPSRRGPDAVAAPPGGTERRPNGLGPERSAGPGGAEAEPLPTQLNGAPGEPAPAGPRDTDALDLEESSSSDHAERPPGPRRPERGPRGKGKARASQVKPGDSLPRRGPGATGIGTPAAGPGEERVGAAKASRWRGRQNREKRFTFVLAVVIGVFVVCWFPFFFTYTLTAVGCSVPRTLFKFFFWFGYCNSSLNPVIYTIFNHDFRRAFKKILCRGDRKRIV
Description: as §1, §2, §3
The results of the RSAT assay with several exemplary compounds of the invention are disclosed in Table 3. […] NA stands for “not active” at concentrations less than 10 micromolar. […]

[1] = test system: rats with ligated L5 and L6 spinal nerves; test: Alleviation of chronic pain: tactile allodynia after L5/L6 spinal nerve ligation (von Frey hairs); format: in vivo, rat; conditions: 30 minutes after administration, ±SEM
Description: A model for chronic pain (in particular peripheral neuropathy such as causalgia) involves the surgical ligation of the L5 (and optionally the L6) spinal nerves on one side in experimental animals. Rats recovering from the surgery gain weight and display a level of general activity similar to that of normal rats. However, these rats develop abnormalities of the foot, wherein the hindpaw is moderately everted and the toes are held together. More importantly, the hindpaw on the side affected by the surgery appears to become sensitive to pain from low-threshold mechanical stimuli, such as that producing a faint sensation of touch in a human, within about 1 week following surgery. This sensitivity to normally non-painful touch is called “tactile allodynia” and lasts for at least two months. The response includes lifting the affected hindpaw to escape from the stimulus, licking the paw and holding it in the air for many seconds. None of these responses is normally seen in the control group.
Rats are anesthetized before surgery. The surgical site is shaved and prepared either with betadine or Novacaine. Incision is made from the thoracic vertebra XIII down toward the sacrum. Muscle tissue is separated from the spinal vertebra (left side) at the L4-S2 levels. The L6 vertebra is located and the transyerse process is carefully removed with a small rongeur to expose the L4-L6 spinal nerves. The L5 and L6 spinal nerves are isolated and tightly ligated with 6-0 silk thread. The same procedure is done on the right side as a control, except no ligation of the spinal nerves is performed. A complete hemostasis is confirmed, then the wounds are sutured. A small amount of antibiotic ointment is applied to the incised area, and the rat is transferred to the recovery plastic cage under a regulated heat-temperature lamp. On the day of the experiment, at least seven days after the surgery, typically six rats per test group are administered the test drugs by intraperitoneal (i.p.) injection or oral gavage. For i.p. injection, the compounds are formulated in approximately 10 to 50% DMSO and given in a volume of 1 ml/kg body weight.
Tactile allodynia is measured prior to and 30 minutes after drug administration using von Frey hairs that are a series of fine hairs with incremental differences in stiffness. Rats are placed in a plastic cage with a wire mesh bottom and allowed to acclimate for approximately 30 minutes. The von Frey hairs are applied perpendicularly through the mesh to the mid-plantar region of the rats' hindpaw with sufficient force to cause slight buckling and held for 6-8 seconds. The applied force has been calculated to range from 0.41 to 15.1 grams. If the paw is sharply withdrawn, it is considered a positive response. A normal animal will not respond to stimuli in this range, but a surgically ligated paw will be withdrawn in response to a 1-2 gram hair. The 50% paw withdrawal threshold is determined using the method of Dixon, […]. The post-drug threshold is compared to the pre-drug threshold and the percent reversal of tactile sensitivity is calculated based on a normal threshold of 15.1 grams. The results are expressed in per cent (%) MPE, where the MPE value reflects the percentage reversal of pain threshold to that of a normal animal (100%). Table 4 below indicates results of this test with Compounds 8, 34 and 40 of the invention, administered i.p., in intrathecal and oral doses.

male Sprague-Dawley rats = test: Sedative activity (exploratory behavior after i.p. injection); format: in vivo; conditions: rat, intraperitoneally, up to a dose of 300 μg/kg
Experimental: To test sedation, six male Sprague-Dawley rats are given up to 3 mg/kg of the test compound in a saline or DMSO vehicle by intraperitoneal injection (i.p.). Sedation is graded 30 minutes following administration of the drug by monitoring locomotor skills as follows.
The Sprague-Dawley rats are weighed and 1 ml/kg body weight of an appropriate concentration (ie. 3 mg/ml for a final dose of 3 mg/kg) drug solution is injected intraperitoneally. Typically the test compound is formulated in approximately 10 to 50% DMSO. The results are compared to controls that are injected with 1 ml/kg saline or 10 to 50% DMSO. Rat activity is then determined 30 minutes after injection of the drug solution. Rats are placed in a dark covered chamber and a digicom analyzer (Omnitech Electronic) quantitates their exploratory behavior for a five-minute period. The machine records each time the rat interrupts an array of 32 photoelectric beams in the X and Y orientation.

EC50 (alpha2C receptor) [nM] | fraction of activity of the standard (brimonidine) attained, Alpha 2C (number in parenthesis) (alpha2C receptor) | EC50 (alpha2B receptor) [nM] | fraction of activity of the standard (brimonidine) attained, Alpha 2B (number in parenthesis) (alpha2B receptor) | EC50 (alpha2A receptor) [nM] | fraction of activity of the standard (brimonidine) attained, Alpha 2A (number in parenthesis) (alpha2A receptor) | SMILES | % MPE ([1]; IP dose 10 μg/kg) [% MPE] | % MPE ([1]; IP dose 30 μg/kg) [% MPE] | % MPE ([1]; IP dose 100 μg/kg) [% MPE] | % MPE ([1]; IP dose 300 μg/kg) [% MPE] | % MPE ([1]; IP dose 1000 μg/kg) [% MPE] | % MPE ([1]; IP dose 3000 μg/kg) [% MPE] | % MPE ([1]; Oral dose 1000 μg/kg) [% MPE] | sedative effect (male Sprague-Dawley rats)
197 | (0.4) | 5 | (1.08) | 515 | (0.4) | CC1=C(C)C(NC(=S)NCCO)CC1 (stereo not shown) [Compound 15, 1-(2,3-Dimethyl-cyclopent-2-enyl)-3-(2-hydroxy-ethyl)-thiourea] |  |  |  |  |  |  |  | 
 |  | 57 | (0.62) |  |  | C[C@H]1CC[C@H](NC(=S)NCCO)CC1 [Compound 40, 1-(2-Hydroxy-ethyl)-3-(4-methyl-cyclohexyl)-thiourea] | 0.1 ± 1.8 | 42 ± 9.2 | 46 ± 7.1 | 77 ± 8.0 | 83 ± 7.0 | 90 ± 6.1 | 80 ± 6.1 | no sedative effect
106 | (0.4) | 2 | (0.93) | 14 | (0.4) | CC[C@H]1CCCC[C@@H]1NC(=S)NCCO (relative stereo) [Compound 37, 1-(trans-2-Ethyl-cyclohexyl)-3-(2-hydroxy-ethyl)-thiourea] |  |  |  |  |  |  |  | 
